Here are results for 28 compounds from patent US20230027864A1, “COMPOSITIONS AND METHODS FOR DELIVERY OF AGENTS TO IMMUNE CELLS” (ModernaTX, Inc., priority 2018, published 2023).

The first assay relates to T cells. As to the kind of experiment: LNP association and GFP mRNA expression in T cells of human PBMCs. The format is cell-based. Particulars: ionizable lipid component of the LNP, FIG. 30. Here is the method: In a second series of experiments, additional compounds, were tested in the LNPs for their ability to enhance delivery to T cells. For these experiments, the association of the LNP with cells and the expression of mRNA-encoding protein within the transfected cells was assessed at the cell-by-cell level. Peripheral blood mononuclear cells (PBMCs) from human donors were used. PBMCs were predominately T cells (40-60%), B cells (3-15%), and monocytes (15-35%), but also contained small numbers of other cell types. LNPs were incubated with serum or PBS for 30 minutes and then added to the PBMCs. The LNP concentration was 0.050 mg/ml, the LNP volume was 0.1 ml.
LNPs contained 0.1% Rhodamine-DOPE in addition to the other LNP components to facilitate detection. Thus, the ratios set forth in the tables below include 0.1 for the rhodamine label. For example, 50:10:10:27.9:2:0.1 AL:DSPC:chol:sterol:Cmp 428 indicates 50% amino lipid as the ionizable lipid, 10% DSPC as the phospholipid, 10% cholesterol, 27.9% phytosterol, 2% Compound 428 as the PEG lipid and 0.1% for the rhodamine-DOPE label. To prepare a non-labeled LNP, the same ratios are used except that the 0.1% rhodamine label is omitted and an additional 0.1% of structural lipid (cholesterol or cholesterol/phytosterol blend) is used (e.g., 27.9% becomes 28%).
Cells were sorted by flow cytometry into subsets based on expression of certain markers: CD3 (T cells), CD20 (B cells), and CD3-, CD20-, CD14+(Monocytes).
mRNA encoding GFP was used as a model agent to effect expression of an intracellular protein.
When conducting flow cytometry, the Y-axis was signal from the rhodamine tag on the LNP and the X-axis was the GFP signal showing expression of the protein.
The “associated” population is any rhodamine+ and/or GFP+ cell and the percent of these cells was calculated by dividing by the total number of cells. The “expression” population is any GFP+ cell and the percent of these cells was calculated by dividing by the total number of cells. The percent of associated cells expressing was obtained by dividing the % expressing cells by the % associated cells.
For `CCCCCCCCC(CCC)OC(=O)CCCCCCCN(CCO)CCCCCCCC(=O)OC(CCCCCCCC)CCCCCCCC` (stereo not drawn) [Compound I-50], the “immune cell delivery potentiating ability in T cells, amino lipid panel” value is “exhibited immune cell delivery potentiating ability in T cells”. Turning to `CCCCCCCCC(CCC)OC(=O)CCCCCCCN(CCCO)CCCCCCCC(=O)OC(CCCCCCCC)CCCCCCCC` (stereo not drawn) [Compound I-328], the “immune cell delivery potentiating ability in T cells, amino lipid panel” value is “exhibited immune cell delivery potentiating ability in T cells”. Turning to `CCCCCCCCC(CCC)OC(=O)CCCCCCCN(CCCCCCCC(=O)OC(CCCCCCCC)CCCCCCCC)CCCNS(C)(=O)=O` (stereo not drawn) [Compound I-330], the “immune cell delivery potentiating ability in T cells, amino lipid panel” value is given as “exhibited immune cell delivery potentiating ability in T cells”. For the compound `CCCCCCCCCOC(=O)CCCCCCCN(CCCCCCCC(=O)OC(CCCCCCCC)CCCCCCCC)CCCNc1c(NCC)c(=O)c1=O` [Compound I-292], the “immune cell delivery potentiating ability in T cells, amino lipid panel” value is “exhibited immune cell delivery potentiating ability in T cells”.

On to `CCCCCCCCC(C)OC(=O)CCCCCCCN(CCO)CCCCCCCC(=O)OC(CCCCCCCC)CCCCCCCC` (stereo not drawn) [Compound I-48], for which the “immune cell delivery potentiating ability in T cells, amino lipid panel” value is “exhibited immune cell delivery potentiating ability in T cells”.

Still in this assay, the particulars now being: phospholipid component of the LNP, FIG. 32.
With `CCCCCCCCCCCCCCCCCC(=O)OC[C@H](COP(=O)([O-])OCC[N+](C)(C)C)OC(=O)CCCCCCCCCCCCCCCCC` [DSPC, 1,2-distearoyl-sn-glycero-3-phosphocholine, reference compound], the “immune cell delivery potentiating ability in T cells, helper lipid panel” value is given as “exhibited immune cell delivery potentiating ability in T cells”.

For a further assay, the system named is T cells. As to the kind of experiment: Additional LNPs: T cell transfection in vitro, mOX40L mRNA, labeled LNPs. It counts as cell-based, human. To be noted: ionizable lipid component, FIG. 43. Here is the method:
In this Example, additional LNPs comprising various lipid components and at different ratios were made and tested for their ability to transfect T cells in vitro. Transfection was performed as in Example 5 using LNPs encapsulating an mRNA encoding mouse OX40L. LNPs were labeled and the results were determined for the mean % cells with LNPs associated, the mean % cells expressing mOX40L and the % of LNP-associated cells expressing mOX40L, as described hereinbefore.
For `CCCCCCCCC(C)OC(=O)CCCCCN(CCCCCCCC(=O)OC(CCCCCCCC)CCCCCCCC)CCCNc1c(NC)c(=O)c1=O` (stereo not drawn) [Compound I-349], the “immune cell delivery potentiating ability in T cells, amino lipid panel” value was “exhibited immune cell delivery potentiating ability in T cells”.

Consider `CCCCCCCCCOC(=O)CCCCCCCN(CCCCCCCC(=O)OC(CCCCCCCC)CCCCCCCC)CCCCNc1c(NC)c(=O)c1=O` [Compound I-351], for which the “immune cell delivery potentiating ability in T cells, amino lipid panel” value was “exhibited immune cell delivery potentiating ability in T cells”. Take `CCCCCCCCC(CC)OC(=O)CCCCCN(CCCCCCCC(=O)OC(CCCCCCCC)CCCCCCCC)CCCNc1c(NC)c(=O)c1=O` (stereo not drawn) [Compound I-350]: the “immune cell delivery potentiating ability in T cells, amino lipid panel” value is “exhibited immune cell delivery potentiating ability in T cells”.

`CCCCCCCCC(C)OC(=O)CCCCCCCN(CCCCCCCC(=O)OC(CCCCCCCC)CCCCCCCC)CCCNc1c(NC)c(=O)c1=O` (stereo not drawn) [Compound I-347]: the “immune cell delivery potentiating ability in T cells, amino lipid panel” value is given as “exhibited immune cell delivery potentiating ability in T cells”. `CCCCCCCCCOC(=O)CCCCCCCN(CCCCCCCC(=O)OC(CCCCCCCC)CCCCCCCC)CCCNc1c(NCC)c(=O)c1=O` [Compound I-292]: the “immune cell delivery potentiating ability in T cells, amino lipid panel” value is listed as “exhibited immune cell delivery potentiating ability in T cells”. As to `CCCCCCCCC(C)OC(=O)CCCCCCCN(CCO)CCCCCCCC(=O)OC(CCCCCCCC)CCCCCCCC` (stereo not drawn) [Compound I-48], the “immune cell delivery potentiating ability in T cells, amino lipid panel” value is on record as “exhibited immune cell delivery potentiating ability in T cells”. As for `CCCCCCCCCC(=O)OCCCCCCCN(CCCCCCCC(=O)OC(CCCCCCCC)CCCCCCCC)CCCNc1c(NC)c(=O)c1=O` [Compound I-309], the “immune cell delivery potentiating ability in T cells, amino lipid panel” value is “exhibited immune cell delivery potentiating ability in T cells”. As for `CCCCCCCCCCCOC(=O)CCCCCN(CCCCCCCC(=O)OC(CCCCCCCC)CCCCCCCC)CCCNc1c(NC)c(=O)c1=O` [Compound I-317], the “immune cell delivery potentiating ability in T cells, amino lipid panel” value is “exhibited immune cell delivery potentiating ability in T cells”. With `CCCCCCCCC(CCC)OC(=O)CCCCCCCN(CCCCCCCC(=O)OC(CCCCCCCC)CCCCCCCC)CCCNc1c(NC)c(=O)c1=O` (stereo not drawn) [Compound I-348], the “immune cell delivery potentiating ability in T cells, amino lipid panel” value is listed as “exhibited immune cell delivery potentiating ability in T cells”. On to `CCCCCCCCC(CC)OC(=O)CCCCCCCN(CCCCCCCC(=O)OC(CCCCCCCC)CCCCCCCC)CCCCNc1c(NC)c(=O)c1=O` (stereo not drawn) [Compound I-352], for which the “immune cell delivery potentiating ability in T cells, amino lipid panel” value is given as “exhibited immune cell delivery potentiating ability in T cells”.

The assay is the same for the next values; noted with them: phospholipid component, FIG. 45.
`CCCCCCCCCCCCCC(=O)OC[C@H](COP(=O)([O-])OCC[N+](C)(C)C)OC(=O)CCCCCCCCCCCCC` [DMPC, 1,2-dimyristoyl-sn-glycero-phosphocholine, reference compound]: the “immune cell delivery potentiating ability in T cells, helper lipid panel” value is “exhibited immune cell delivery potentiating ability in T cells”. On to `CCCCCCCCCCCCCCCC(=O)OC[C@H](COP(=O)([O-])OCC[N+](C)(C)C)OC(=O)CCCCCCCCCCCCCCC` [DPPC, 1,2-dipalmitoyl-sn-glycero-3-phosphocholine, reference compound], for which the “immune cell delivery potentiating ability in T cells, helper lipid panel” value is “exhibited immune cell delivery potentiating ability in T cells”.

The assay is the same for the next values; noted with them: structural component, FIG. 44.
Regarding `CC(C)C(/C=C/[C@@H](C)[C@H]1CC[C@H]2[C@@H]3CC=C4C[C@@H](O)CC[C@]4(C)[C@H]3CC[C@]12C)C(C)C` [Compound 5-167], the “immune cell delivery potentiating ability in T cells, sterol panel” value is “exhibited immune cell delivery potentiating ability in T cells”.

As for `CC[C@H](/C=C/[C@@H](C)[C@H]1CC[C@H]2[C@@H]3CC=C4C[C@@H](O)CC[C@]4(C)[C@H]3CC[C@]12C)C(C)C` [Compound S-140], the “immune cell delivery potentiating ability in T cells, sterol panel” value is on record as “exhibited immune cell delivery potentiating ability in T cells”. Take `CC(C)[C@@H](C)/C=C/[C@@H](C)[C@H]1CC[C@H]2[C@@H]3CC=C4C[C@@H](O)CC[C@]4(C)[C@H]3CC[C@]12C` [Compound S-148, brassicasterol]: the “immune cell delivery potentiating ability in T cells, sterol panel” value is given as “exhibited immune cell delivery potentiating ability in T cells”.

For `CCC(/C=C/[C@@H](C)[C@H]1CC[C@H]2[C@@H]3CC=C4C[C@@H](O)CC[C@]4(C)[C@H]3CC[C@]12C)(CC)CC` [Compound 5-166], the “immune cell delivery potentiating ability in T cells, sterol panel” value is recorded as “exhibited immune cell delivery potentiating ability in T cells”. Regarding `CC(C)[C@H](C)CC[C@@H](C)[C@H]1CC[C@H]2[C@@H]3CC=C4C[C@@H](O)CC[C@]4(C)[C@H]3CC[C@]12C` [Compound S-143, campesterol], the “immune cell delivery potentiating ability in T cells, sterol panel” value was “exhibited immune cell delivery potentiating ability in T cells”. Still for that read-out and setting: the entry for `CC(C)[C@H](C)CC[C@@H](C)[C@H]1CC[C@H]2[C@@H]3CC[C@H]4C[C@@H](O)CC[C@]4(C)[C@H]3CC[C@]12C` [Compound 5-159] is “exhibited immune cell delivery potentiating ability in T cells”. As to `CC[C@H](CC[C@@H](C)[C@H]1CC[C@H]2[C@@H]3CC[C@H]4C[C@@H](O)CC[C@]4(C)[C@H]3CC[C@]12C)C(C)C` [Compound S-144, β-sitostanol], the “immune cell delivery potentiating ability in T cells, sterol panel” value is listed as “exhibited immune cell delivery potentiating ability in T cells”. On to `CC(C)[C@@H](C)CC[C@@H](C)[C@H]1CC[C@H]2[C@@H]3CC[C@H]4C[C@@H](O)CC[C@]4(C)[C@H]3CC[C@]12C` [Compound S-151], for which the “immune cell delivery potentiating ability in T cells, sterol panel” value is “exhibited immune cell delivery potentiating ability in T cells”. For `CC(C)C(CC[C@@H](C)[C@H]1CC[C@H]2[C@@H]3CC[C@H]4C[C@@H](O)CC[C@]4(C)[C@H]3CC[C@]12C)C(C)C` [Compound 5-173], the “immune cell delivery potentiating ability in T cells, sterol panel” value is given as “exhibited immune cell delivery potentiating ability in T cells”. Consider `CCC(/C=C/[C@@H](C)[C@H]1CC[C@H]2[C@@H]3CC=C4C[C@@H](O)CC[C@]4(C)[C@H]3CC[C@]12C)CC` [Compound 5-160], for which the “immune cell delivery potentiating ability in T cells, sterol panel” value was “exhibited immune cell delivery potentiating ability in T cells”.

The assay is the same for the next values; noted with them: third series, against Compound I-18 formulations, FIG. 47.
Regarding `CCCCCCCCCCC(O)CN(CCCCC1NC(=O)C(CCCCN(CC(O)CCCCCCCCCC)CC(O)CCCCCCCCCC)NC1=O)CC(O)CCCCCCCCCC` (stereo not drawn) [CKK-E12, reference compound], the “immune cell delivery potentiating ability in T cells, other ionizable lipids” value was “exhibited immune cell delivery potentiating ability in T cells”. `CCCCCC=CCC=CCCCCCCCCC(CCCCCCCCC=CCC=CCCCCC)OC(=O)CCCN(C)C` (stereo not drawn) [MC3, heptatriaconta-6,9,28,31-tetraen-19-yl 4-(dimethylamino)butanoate, reference compound]: the “immune cell delivery potentiating ability in T cells, other ionizable lipids” value was “exhibited immune cell delivery potentiating ability in T cells”.
